Patent US5122523A, “N-acylamino acid derivatives and their pharmaceutical compositions” (Banyu Pharmaceutical Co., Ltd., priority 1987, dated 1992)

Columns and labels:
[1] = biological target: T1, human plasma renin (Homo sapiens, UniProt P00797); test: Renin inhibiting activities (human plasma, angiotensin I by radioimmunoassay); format: biochemical; details: pH7.4, 37° C., one hour
T1 construct: from tissue; host or cells: human plasma
T1 sequence (P00797 67-406): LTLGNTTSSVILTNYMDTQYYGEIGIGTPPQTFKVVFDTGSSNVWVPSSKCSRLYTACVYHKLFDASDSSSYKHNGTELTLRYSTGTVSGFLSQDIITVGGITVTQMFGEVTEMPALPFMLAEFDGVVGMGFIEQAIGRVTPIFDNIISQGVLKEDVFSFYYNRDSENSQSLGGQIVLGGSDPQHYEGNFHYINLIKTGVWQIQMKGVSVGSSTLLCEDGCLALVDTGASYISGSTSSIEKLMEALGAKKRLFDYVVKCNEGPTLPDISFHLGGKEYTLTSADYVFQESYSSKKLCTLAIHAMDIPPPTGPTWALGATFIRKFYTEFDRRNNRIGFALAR
Procedure: TEST EXAMPLE 1: Renin inhibiting activities
To 156 μl of a 0.2M sodium phosphate buffer solution (pH7.4), 40 μl of a solution mixture of 34 mM 8-hydroxyquinoline and 100 mM disodium ethylenediamine tetraacetate, 4 μl of dimethyl sulfoxide or a dimethyl sulfoxide solution of an inhibitor and 200 μl of human plasma were added and reacted at 37° C. for one hour. Then, pepstatin was added thereto to terminate the reaction, and the amount of the resulting angiotension I was measured by radio immunoassay whereby the inhibiting activity was determined.

[2] = Absorption test by oral administration in rats (plasma concentration); format: in vivo; details: rat, rats (n=4), 10 mg/kg oral, read-out: Concentration of the compound in plasma
Procedure: TEST EXAMPLE 2: Absorption test by oral administration
10 mg/kg of the compound of Example 16 was orally administered to rats (n=4), whereupon the concentration of the compound in the plasma was measured. The concentration in the plasma was calculated by the inhibiting activities against human plasma renin.

CCCC[C@H](NC(=O)C(Cc1cccc2ccccc12)CS(=O)(=O)CC)C(=O)N[C@@H](CC1CCCCC1)[C@@H](O)[C@H](O)CN1CCOCC1 (mixture of isomers) [Example 16, (2RS,3RS,4S)-4-{L-N-[3-ethylsulfonyl-2-(1-naphthylmethyl)propionyl]norleucyl}amino-5-cyclohexyl-1-morpholino-2,3-pentandiol]
IC50 [1]: 3.4 nM | concentration at 0.5 h ([2]; 1/2 hrs): 267 ng/mL | concentration at 0.25 h ([2]; 1/4 hrs): 212 ng/mL | concentration at 10 min ([2]; 1/6 hrs): 136 ng/mL | concentration at 5 min ([2]; 1/12 hrs): 89 ng/mL | concentration at 1 h ([2]; 1 hr): 183 ng/mL | concentration at 2 h ([2]; 2 hrs): 85 ng/mL | concentration at 4 h ([2]; 4 hrs): 34 ng/mL | concentration at 8 h ([2]; 8 hrs): 12 ng/mL | concentration at 24 h ([2]; 24 hrs): 7 ng/mL

CCCC[C@H](NC(=O)C(Cc1cccc2ccccc12)CS(=O)(=O)CCO)C(=O)N[C@@H](CC1CCCCC1)[C@@H](O)[C@@H](O)CN1CCOCC1 (single isomer, unassigned) [Example 36, (2S,3R,4S)-4-{L-N-[(2S or R)-3-(2-hydroxyethyl)sulfonyl-2-(1-naphthylmethyl)propionyl]norleucyl}amino-5-cyclohexyl-1-morpholino-2,3-pentanediol]
IC50 [1]: 2.7 nM

CCCC[C@H](NC(=O)C(Cc1ccccc1)CS(=O)(=O)C1CCCC1)C(=O)N[C@@H](CC1CCCCC1)[C@@H](O)[C@@H](O)CN1CCOCC1 (single isomer, unassigned) [Example 51(B), (2S,3R,4S)-4-{L-N-[(2S or R)-3-cyclopentanesulfonyl-2-benzylpropionyl]norleucyl}amino-5-cyclohexyl-1-morpholino-2,3-pentanediol]
IC50 [1]: 2 nM

CCC(C[C@H](O)[C@H](CC(C)C)NC(=O)[C@H](Cc1c[nH]cn1)NC(=O)[C@H](Cc1cccc2ccccc12)CS(=O)(=O)CC)C(=O)NCC(C)C (mixture of isomers) [Example 15, (2RS,4S,5S)-5-{L-N^α -[(2S)-3-ethylsulfonyl-2-(1-naphthylmethyl)propionyl]histidyl}amino-2-ethyl-4-hydroxy-7-methyloctanoic acid isobutylamide]
IC50 [1]: 0.5 nM

CCCC[C@H](NC(=O)C(Cc1cccc2ccccc12)CS(=O)(=O)c1ncccn1)C(=O)N[C@@H](CC(C)C)[C@@H](O)CC(CC)C(=O)NCC(C)C (single isomer, unassigned) [Example 2, (2RS,4S,5S)-5-{L-N-[(2R or S)-3-(pyrimidin-2-yl)sulfonyl-2-(1-naphthylmethyl)propionyl]norleucyl}amino-2-ethyl-4-hydroxy-7-methyloctanoic acid isobutylamide]
IC50 [1]: 0.17 nM

CCCC[C@H](NC(=O)[C@H](Cc1ccccc1)CS(=O)(=O)c1ncccn1)C(=O)N[C@@H](CC1CCCCC1)[C@@H](O)[C@@H](O)CN1CCOCC1 [Example 44, (2S,3R,4S)-4-{L-N-[(2S)-2-benzyl-3-(pyrimidin-2-yl)sulfonylpropionyl]norleucyl}amino-5-cyclohexyl-1-morpholino-2,3-pentanediol]
IC50 [1]: 3.8 nM
